Some results are limits rather than exact numbers.

The target of assay [1] is Nicotinamide phosphoribosyltransferase (Homo sapiens, UniProt P43490). The assay is described as follows: Inhibition of recombinant NAMPT (unknown origin) using NAM and PRPP as substrates incubated for 60 mins in presence of NMNAT1 measured at 5 mins interval for 30 mins by WST1 assay.
Assay [2] deals with K562. The assay is described as follows: Antiproliferative activity against human K562 cells assessed as inhibition of cell growth after 72 hrs by CCK-8 assay. It is filed as functional, cell-based. As to conditions: K562, 72 h.
Assay [3] relates to MCF7. Description: Antiproliferative activity against human MCF7 cells assessed as inhibition of cell growth after 72 hrs by CCK-8 assay. It is filed as functional, cell-based. The note with it: MCF7, 72 h.
Assay [4] concerns DU-145. Description: Antiproliferative activity against human DU145 cells assessed as inhibition of cell growth after 72 hrs by CCK-8 assay. It is filed as functional, cell-based. As to conditions: DU-145, 72 h.
The subject of assay [5] is HeLa. Description: Antiproliferative activity against human HeLa cells assessed as inhibition of cell growth after 72 hrs by CCK-8 assay. It is filed as functional, cell-based.
Assay [6] relates to NCI-H1975. The assay is described as follows: Antiproliferative activity against human NCI-H1975 cells harboring EGFR L858R/T790M mutation assessed as inhibition of cell growth after 72 hrs by CCK-8 assay. The class given is functional, cell-based. As to conditions: NCI-H1975, 72 h.
Assay [7] has as its system Huh-7. Description: Antiproliferative activity against human HuH7 cells assessed as inhibition of cell growth after 72 hrs by CCK-8 assay. It is filed as functional, cell-based. As to conditions: Huh-7, 72 h.

Sequence of Nicotinamide phosphoribosyltransferase (P43490 whole entry): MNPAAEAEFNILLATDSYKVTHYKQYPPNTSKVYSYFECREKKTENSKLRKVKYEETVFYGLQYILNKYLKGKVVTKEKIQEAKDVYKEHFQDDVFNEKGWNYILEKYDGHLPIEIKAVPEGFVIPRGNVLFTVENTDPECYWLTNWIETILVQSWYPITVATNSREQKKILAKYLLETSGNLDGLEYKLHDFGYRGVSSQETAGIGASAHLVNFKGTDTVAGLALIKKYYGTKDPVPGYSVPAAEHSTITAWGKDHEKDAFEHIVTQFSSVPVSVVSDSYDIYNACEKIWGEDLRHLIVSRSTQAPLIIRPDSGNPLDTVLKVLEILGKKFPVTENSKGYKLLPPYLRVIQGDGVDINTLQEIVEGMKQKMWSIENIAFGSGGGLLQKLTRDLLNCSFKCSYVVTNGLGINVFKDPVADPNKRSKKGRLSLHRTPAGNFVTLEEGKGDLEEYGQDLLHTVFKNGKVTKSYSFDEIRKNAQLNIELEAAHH

`Cc1ccc(C)c(NS(=O)(=O)c2cccc(CCCCCCNC(=O)/C=C/c3cccnc3)c2)c1`: the IC50 in assay [1] amounted to 11.6 nM; in assay [2], 0.84 nM; in assay [3] it was 0.6 nM; in assay [4] it was 7.48 nM; in assay [5] it was 22.6 nM; in assay [6], 4.88 nM. Moreover, the IC50 in assay [7] amounted to 2.58 nM.

Turning to `O=C(/C=C/c1cccnc1)NCCCCCCc1cccc(S(=O)(=O)Nc2ccc(F)cc2)c1`, the IC50 in assay [1] came to 9.2 nM; in assay [2], 0.93 nM; in assay [3] it was 0.91 nM; in assay [4], 10.6 nM; in assay [5], 99.9 nM; in assay [6], 1.34 nM. Besides, the IC50 in assay [7] was 4.28 nM.

In the case of `O=C(/C=C/c1cccnc1)NCCCCCCCc1cccc(S(=O)(=O)Nc2ccccc2)c1`, the IC50 came out at 31.3 nM in assay [1]; 61.1 nM in assay [2]; 42.6 nM in assay [3]; 429 nM in assay [4]; 598 nM in assay [5]; 316 nM in assay [6]. Besides, the IC50 in assay [7] was 138 nM.

For the molecule `O=C(/C=C/c1cccnc1)NCCCCCCc1cccc(S(=O)(=O)Nc2ccc(F)c(Cl)c2)c1`, the IC50 in assay [1] amounted to 9.7 nM; in assay [2] it was 5.31 nM; in assay [3], 6.3 nM; in assay [4] it was 150 nM; in assay [5] it was 385 nM; in assay [6], 25 nM. Moreover, the IC50 in assay [7] stood at 39.4 nM.

For `O=C(/C=C/c1cccnc1)NCCCCCCCc1ccc(S(=O)(=O)Nc2ccccc2)cc1`, the concentration for half-maximal inhibition (IC50) was 16.4 nM in assay [1]; 56.5 nM in assay [2]; 37.6 nM in assay [3]; 438 nM in assay [4]; 223 nM in assay [5]; 330 nM in assay [6]. The IC50 in assay [7] stood at 1220 nM.

Take `O=C(/C=C/c1cccnc1)NCCCCCCc1ccc(S(=O)(=O)Nc2ccccc2)cc1`: the IC50 turned out to be 14.4 nM in assay [1]; 48.5 nM in assay [2]; 36 nM in assay [3]; 328 nM in assay [4]; 377 nM in assay [5]; 239 nM in assay [6]. The IC50 in assay [7] came to 112 nM.

Take `CCc1ccc(NS(=O)(=O)c2cccc(CCCCCCNC(=O)/C=C/c3cccnc3)c2)cc1`: the IC50 in assay [1] came out at 31.5 nM; in assay [2] it was 3.89 nM; in assay [3], 3.64 nM; in assay [4], 40.1 nM; in assay [5], 132 nM; in assay [6], 33.4 nM. Also, in assay [7], the IC50 is 34.6 nM.

As for `O=C(/C=C/c1cccnc1)NCCCc1ccc(S(=O)(=O)Nc2ccccc2)cc1`, the IC50 in assay [1] was 5920 nM; in assay [2], 4900 nM; in assay [3], 4120 nM; in assay [4], over 10000 nM; in assay [5], over 10000 nM; in assay [6], over 10000 nM. Besides, the IC50 in assay [7] was over 10000 nM.

Turning to `O=C(/C=C/c1cccnc1)NCCCCCCc1cccc(S(=O)(=O)Nc2ccccc2)c1`, the IC50 worked out at 10.5 nM in assay [1]; 0.88 nM in assay [2]; 0.63 nM in assay [3]; 6.73 nM in assay [4]; 30.4 nM in assay [5]; 6.37 nM in assay [6]. In addition, the IC50 in assay [7] was 2.82 nM.

With `O=C(/C=C/c1cccnc1)NCCCCCCc1cccc(S(=O)(=O)Nc2ccc(C(F)(F)F)cc2)c1`, the IC50 in assay [1] was 24.5 nM; in assay [2], 44.9 nM; in assay [3], 67.8 nM; in assay [4], 1410 nM; in assay [5], 1450 nM; in assay [6], 175 nM. Besides, the IC50 in assay [7] was found to be 164 nM.

Turning to `CC(C)(C)c1ccc(NS(=O)(=O)c2cccc(CCCCCCNC(=O)/C=C/c3cccnc3)c2)cc1`, the IC50 worked out at 9.47 nM in assay [1]; 24.7 nM in assay [2]; 26.3 nM in assay [3]; 281 nM in assay [4]; 1520 nM in assay [5]; 157 nM in assay [6]. Further, the half-maximal inhibitory concentration (IC50) in assay [7] came out at 163 nM.

Regarding `O=C(/C=C/c1cccnc1)NCCCCCCc1cccc(S(=O)(=O)Nc2ccc(Cl)cc2)c1`, the IC50 in assay [1] was determined as 10.8 nM; in assay [2], 6.41 nM; in assay [3] it was 5.94 nM; in assay [4] it was 84.4 nM; in assay [5] it was 170 nM; in assay [6], 33.3 nM. For the same molecule, in assay [7], the IC50 came out at 24.1 nM.

`O=C(/C=C/c1cccnc1)NCCCCCc1cccc(S(=O)(=O)Nc2ccccc2)c1`: the IC50 in assay [1] worked out at 16.5 nM; in assay [2] it was 16.2 nM; in assay [3], 12.5 nM; in assay [4] it was 140 nM; in assay [5], 105 nM; in assay [6] it was 146 nM. The IC50 in assay [7] came to 41.1 nM.

As to `O=C(/C=C/c1cccnc1)NCCCCCc1ccc(S(=O)(=O)Nc2ccccc2)cc1`, the IC50 in assay [1] was 28.4 nM; in assay [2] it was 146 nM; in assay [3], 95.7 nM; in assay [4], 581 nM; in assay [5], 333 nM; in assay [6] it was 778 nM. The IC50 in assay [7] was 408 nM.

Consider `O=C(/C=C/c1cccnc1)NCCCCc1ccc(S(=O)(=O)Nc2ccccc2)cc1`, for which the IC50 is 17.8 nM in assay [1]; 9.56 nM in assay [2]; 5.03 nM in assay [3]; 47.9 nM in assay [4]; 184 nM in assay [5]; 63.6 nM in assay [6]. In assay [7], the IC50 worked out at 24.2 nM.

As for `O=C(/C=C/c1cccnc1)NCCCCC1CCN(C(=O)c2ccccc2)CC1` [DAPORINAD], the IC50 in assay [2] was 0.96 nM; in assay [3], 0.41 nM; in assay [4], 5.12 nM; in assay [5], 3.75 nM; in assay [6], 4.76 nM; in assay [7], 1.05 nM.

Take `O=C(/C=C/c1cccnc1)NCCCc1cccc(S(=O)(=O)Nc2ccccc2)c1`: the IC50 turned out to be 235 nM in assay [1]; 86.8 nM in assay [2]; 142 nM in assay [3]; 165 nM in assay [4]; 115 nM in assay [5]; 261 nM in assay [6]. For the same molecule, the IC50 in assay [7] amounted to 384 nM.

As for `O=C(/C=C/c1cccnc1)NCCCCCCc1cccc(S(=O)(=O)Nc2ccc(Oc3ccccc3)cc2)c1`, the IC50 was determined as 13.1 nM in assay [1]; 5.12 nM in assay [2]; 3.84 nM in assay [3]; 50.9 nM in assay [4]; 262 nM in assay [5]; 25.6 nM in assay [6]. Moreover, the 50% inhibitory concentration (IC50) in assay [7] amounted to 32.7 nM.

Consider `Cc1ccccc1NS(=O)(=O)c1cccc(CCCCCCNC(=O)/C=C/c2cccnc2)c1`, for which the IC50 in assay [1] is 5.08 nM; in assay [2], 0.456 to 0.46 nM; in assay [3], 0.226 to 0.23 nM; in assay [4], 2.9 nM; in assay [5], 2.34 nM; in assay [6] it was 2.24 nM. Besides, the IC50 in assay [7] was in the range of 0.525 to 0.53 nM.

Turning to `Cc1cccc(NS(=O)(=O)c2cccc(CCCCCCNC(=O)/C=C/c3cccnc3)c2)c1`, the IC50 in assay [1] came out at 12.3 nM; in assay [2] it was 4.78 nM; in assay [3], 4 nM; in assay [4] it was 41.7 nM; in assay [5], 65.8 nM; in assay [6] it was 40.7 nM. Further, the IC50 in assay [7] was determined as 13.2 nM.

With `Cc1ccc(NS(=O)(=O)c2cccc(CCCCCCNC(=O)/C=C/c3cccnc3)c2)cc1`, the IC50 in assay [1] amounted to 9.78 nM; in assay [2] it was 2.98 nM; in assay [3], 1.97 nM; in assay [4] it was 34.4 nM; in assay [5] it was 38.8 nM; in assay [6], 17.1 nM. Moreover, in assay [7], the 50% inhibitory concentration (IC50) worked out at 6.92 nM.
